Measured values taken from US6962921B2, “Dementia remedies containing 2-aryl-8-oxodihydropurine derivatives as the active ingredient” (Dainippon Pharmaceutical Co., Ltd., priority 2000, dated 2005).

Assays:
[1] = test system: scopolamine-induced spatial memory disorder; experiment: Ameliorating effect on spatial memory disorder induced by scopolamine (Y-maze, alternation behavior); assay type: in vivo; settings: Std-ddY male mice, oral, 1 hour before scopolamine 0.6 mg/kg s.c., 5% significance level
Protocol: Experiment 1: Ameliorating Effect on Spatial Memory Disorder Induced by Scopolamine. The spatial memory test using Y-maze apparatus is a test to utilize the behavioral property of animals to enter into a new arm, avoiding the arm that they entered into just before (alternation behavior). This method is often used in order to study spatial working memory. This experiment was carried out according to the method of Itoh, J., et al. [Eur. J. Pharmacol., 236, 341-345 (1993)]. Std-ddY male mice weighing 25-30 g (8 mice per one group) were used in the experiment. A solution of scopolamine in physiological saline (concentration: 0.06 mg/ml) was subcutaneously administered to mice in a volume of 0.1 ml/10 g of body weight, i.e., 0.6 mg/kg. Mice in the test compound group were orally treated with the test compound suspended in 0.5% tragacanth solution in a volume of 0.1 ml/10 g of body weight 1 hour before scopolamine administration, while animals in the amnesia control group and the vehicle control group received a 0.5% tragacanth solution in the same manner as above. However, the vehicle control group was injected with physiological saline instead of scopolamine. Thirty minutes after administration of scopolamine, the mice were placed at the end of the arm A of the Y-maze apparatus which was composed of three black acrylic trapezoid arms (bottom width: 3 cm, height of side wall: 12 cm, width of opened ceiling: 10 cm, length: 40 cm), wherein said three arms were connected at the one end of each arm to form Y-shape and another ends were closed, and the three arms were differentiated by the names as A, B and C respectively, and allowed to search freely the maze for 8 minutes. When the mouse was checked to enter into an arm at the length of not less than 10 cm from the entrance of the arm, the name of the arm (A, B or C) was recorded. It could be defined as a correct choice when the mouse selected the different three arms sequentially, and the number of alternation behavior i.e., the number of correct choices was counted. In the case that the total number of arm entries was less than 10 [the maximum number of alternation behavior (the number obtained by subtracting 2 from the total number of arm entries) is less than 8], the resulting data were not used and the retest was carried out instead, because the ability of learning could not occasionally reflect the alternation behavior. For the final data gotten, the ratio of the number of the alternation behavior to that of the entries (obtained by subtracting 2 from the total number of arm entries) was estimated as the rate of alternation behavior. In statistical analysis, the rate of alternation behavior in the amnesia control group was compared with that in the vehicle control group by the nonparametric Wilcoxon rank sum test and it was checked if a significant amnesia was induced in the amnesia control group. Next, the efficacy of the test compounds was evaluated in comparison between the amnesia control group and the test compound group by the nonparametric Dunnett multiple comparison test. The statistical calculation was carried out with SAS system Version 6.12 (SAS Institute Japan Ltd.).

[2] = test system: scopolamine-induced object memory impairment; experiment: Ameliorating effect on object memory disorder induced by scopolamine (object recognition test); assay type: in vivo; settings: Std-ddY male mice, oral; for MED (minimum effective dose), significant difference in the discrimination index, scopolamine-induced object memory impairment: 30 minutes before scopolamine 0.4 mg/kg s.c., 5% significance level
Protocol: Experiment 2: Ameliorating Effect on Object Memory Disorder Induced by Scopolamine. The object recognition test is a test method using the property which animals like to search a novel object. This method is often used in order to study the memorization and retention of episodic memory. This experiment was carried out according to the partially modified method of Bartolini, L. et al. [Pharmacol. Biochem. Behav., 53, 277-283 (1996)]. Std-ddY male mice weighing 25-30 g (six mice per one group) were used in the experiment. Scopolamine dissolved in physiological saline (concentration: 0.04 mg/ml) was subcutaneously administered to mice in a volume of 0.1 ml per 10 g of body weight, i.e., 0.4 mg/kg. For the test compound group, the test compound suspended in 0.5% tragacanth solution was orally administered in a volume of 0.1 ml per 10 g of body weight, 30 minutes before scopolamine administration, and for the amnesia control group and the vehicle control group, a 0.5% tragacanth solution was administered in the same manner as above. However, for the vehicle control group, physiological saline was administered instead of scopolamine. Thirty minutes after the administration of scopolamine, the first trial was carried out for 5 minutes, and 1 hour after the first trial, the second trial was carried out for 5 minutes. In the first trial, the two same-shaped objects [red frustum-formed funnel adaptors made of silicon (bottom diameter: 6.1 cm, ceiling diameter: 4.5 cm, height: 3.5 cm)] are put on the two adjacent corners of the test box made of brown acrylic (length: 22.5 cm, width: 24.5 cm, height: 11 cm), and the time that the mouse explored each object was measured. In the second trial, the object (familiar: F) which the exploration time was longer in the first trial was retained, while another object in the first trial was replaced by the novel object [novel: N, red diver ring (outside diameter: 7.5 cm, inside diameter: 2.5 cm, thickness: 2.0 cm)] at the same position, and then the time for exploring each object was measured. The rate of object memory impairment was obtained from the formula: (N−F)/(N+F) as a discrimination index, and the comparison between the vehicle control group and the amnesia control group, and between the amnesia control group and the test compound group was carried out on the basis of said discrimination index. In statistical analysis, the comparison between the vehicle control group and the amnesia control group was carried out by the Student's t test and it was checked whether a significant amnesia was induced. The efficacy of the test compounds was evaluated on the basis of comparison between the amnesia control group and the test compound group by the parametric Dunnett's multiple comparison test. […]

[3] = test system: MK-801-induced object location memory impairment; experiment: Ameliorating effect on the impairment of object location memory induced by MK-801 (object location memory test); assay type: in vivo, mice; settings: oral; for MED (minimum effective dose), significant ameliorating effect on MK-801-induced object location memory impairment: Std-ddY male mice, 30 minutes before MK-801 0.05 mg/kg s.c., 5% significance level; for effective dose relative to the dose of FGIN-1-27: MK-801-induced object location memory impairment, mice
Text: Experiment 3: Ameliorating Effect on the Impairment of Object Location Memory Induced by MK-801.
The object location memory test is a test method using the property which animals like to search a novelty caused by the change of an object location. This method is often used in order to study the ability of object location memory. This method is closely related with hypofunction of glutamatergic system and cause the location memory impairment selectively without the impairment of object memory which is induced by hypofunction of cholinergic system.
This experiment was carried out according to the partially modified method of Sophie L. Dix, et al. [Behav. Brain Res., 99, 191-200 (1999)].
Std-ddY male mice weighing 25-30 g (six mice per one group) were used in the experiment. A solution of MK-801 in physiological saline (concentration: 0.005 mg/ml) was subcutaneously administered in a volume of 0.1 ml per 10 g of body weight, i.e., 0.05 mg/kg. For the test compound group, the test compound suspended in 0.5% tragacanth solution was orally administered in a volume of 0.1 ml per 10 g of body weight, 30 minutes before MK-801 administration, and for the amnesia control group and the vehicle control group, a 0.5% tragacanth solution was administered in the same manner as above. However, for the vehicle control group, physiological saline was administered instead of MK-801. Thirty minutes after the administration of MK-801, the first trial was carried out for 5 minutes, and 1 hour after the first trial, the second trial was carried out for 5 minutes. In the first trial, the two same-shaped objects [red frustum-formed funnel adaptors made of silicon (bottom diameter: 6.1 cm, ceiling diameter: 4.5 cm, height: 3.5 cm)] were respectively put in the center and one of the corners of the test box made of brown acrylic (length: 22.5 cm, width 24.5 cm, height: 11 cm), and the time which the mouse explored each object was measured. In the second trial, the object (displaced object: DO) which was located in the center in the first trial was displaced in the opposite corner to another object (non displaced object: NDO), and then the time which the mouse explored each object was measured. The difference in the exploration time of DO and NDO respectively between the first trial and the second trial was calculated, and the comparison between the vehicle control group and the amnesia control group, and between the amnesia control group and the test compound group was carried out.
In statistical analysis, the comparison between the vehicle control group and the amnesia control group was carried out by the Student's t test and it was confirmed whether a significant object location memory impairment was induced. The efficacy of the test compounds was evaluated by comparing the amnesia control group with the test compound group using the parametric Dunnett's multiple comparison test. The statistical calculation was carried out with SAS system Version 6.12 (SAS Institute Japan Ltd.).
Besides, in the vehicle control group, the exploration time for NDO in the second trial decreased and the exploration time for DO was obviously longer than that for NDO. […] On the other hand, in the amnesia control group with MK-801, both exploration time for NDO and DO decreased remarkably.

[4] = test system: animal models of learning impairment; settings: active avoidance test, radial-arm maze test, water maze test; cited from earlier work
[5] = test system: Std-ddY male mice; experiment: Acute toxicity (Experiment 4); assay type: in vivo; settings: oral 2000 mg/kg, observed for 7 days
Protocol: Experiment 4: Acute Toxicity
The experiment on the test compound C was carried out using Std-ddY male mice weighing 25-30 g (10 mice per each group).

## CCN(Cc1ccccc1)C(=O)Cn1c(=O)n(C)c2nc(-c3ccccc3)ncc21 [Test Compound B, N-benzyl-N-ethyl-8,9-dihydro-9-methyl-8-oxo-2-phenyl-7H-purin-7-acetamide]
[1]
  MED (minimum effective dose), significant ameliorating effect on scopolamine-induced spatial memory disorder in the rate of alternation behavior: 3 mg/kg

## CCCCCCN(CCCCCC)C(=O)Cc1c(-c2ccc(F)cc2)[nH]c2ccccc12 [FGIN-1-27, N,N-di-n-hexyl-2-(4-fluorophenyl)indol-3-acetamide, reference compound]
[2]
  MED (minimum effective dose), significant difference in the discrimination index, scopolamine-induced object memory impairment: >30 mg/kg
[2]; dose of 30 mg/kg
  ameliorating effect on scopolamine-induced object memory impairment at a stated dose: no significant ameliorating effect
[1]
  MED (minimum effective dose), significant ameliorating effect on scopolamine-induced spatial memory disorder in the rate of alternation behavior: 10 mg/kg
[3]
  MED (minimum effective dose), significant ameliorating effect on MK-801-induced object location memory impairment: 10 mg/kg
[4]
  ameliorating effects in animal models of learning impairment: weak ameliorating effects

## CCN(Cc1ccccc1)C(=O)Cn1c(=O)n(CC)c2cnc(-c3ccccc3)nc21 [Test Compound D, N-benzyl-7-ethyl-N-ethyl-7,8-dihydro-8-oxo-2-phenyl-9H-purin-9-acetamide]
[1]
  MED (minimum effective dose), significant ameliorating effect on scopolamine-induced spatial memory disorder in the rate of alternation behavior: 3 mg/kg

## pregnenolone sulfate
[4]
  ameliorating effects in animal models of learning impairment: weak ameliorating effects

## CC(=O)[C@H]1CC[C@H]2[C@@H]3CC[C@H]4C[C@H](O)CC[C@]4(C)[C@H]3CC[C@]12C [allopregnanolone]
[4]
  ameliorating effects in animal models of learning impairment: weak ameliorating effects

## COc1ccc(N(C)C(=O)Cn2c(=O)n(C)c3cnc(-c4ccccc4)nc32)cc1 [Test Compound A, N-(4-methoxyphenyl)-7,8-dihydro-7-methyl-N-methyl-8-oxo-2-phenyl-9H-purin-9-acetamide]
[1]
  MED (minimum effective dose), significant ameliorating effect on scopolamine-induced spatial memory disorder in the rate of alternation behavior: 3 mg/kg

## CCN(Cc1ccccc1)C(=O)Cn1c(=O)n(C)c2cnc(-c3ccccc3)nc21 [Test Compound E, N-benzyl-N-ethyl-7,8-dihydro-7-methyl-8-oxo-2-phenyl-9H-purin-9-acetamide]
[2]
  MED (minimum effective dose), significant difference in the discrimination index, scopolamine-induced object memory impairment: 0.1 mg/kg
[1]
  MED (minimum effective dose), significant ameliorating effect on scopolamine-induced spatial memory disorder in the rate of alternation behavior: 1 mg/kg
[3]
  effective dose relative to the dose of FGIN-1-27: less than 1/100
  MED (minimum effective dose), significant ameliorating effect on MK-801-induced object location memory impairment: 0.01 mg/kg

## CCN(C(=O)Cn1c(=O)n(C)c2nc(-c3ccccc3)ncc21)c1ccccc1 [Test Compound C, N-ethyl-8,9-dihydro-9-methyl-8-oxo-2-phenyl-N-phenyl-7H-purin-7-acetamide]
[5]
  lethality: no mouse treated with the test compound C died
[2]
  MED (minimum effective dose), significant difference in the discrimination index, scopolamine-induced object memory impairment: 0.01 mg/kg
[1]
  MED (minimum effective dose), significant ameliorating effect on scopolamine-induced spatial memory disorder in the rate of alternation behavior: 0.01 mg/kg
[3]
  effective dose relative to the dose of FGIN-1-27: less than 1/100
  MED (minimum effective dose), significant ameliorating effect on MK-801-induced object location memory impairment: 0.1 mg/kg
